From ChEMBL document CHEMBL1124665, “Is there a case for P-450 inhibitors in cancer treatment?” (J Med Chem, 1989) come the findings set out here.

pKi: −log10 of the molar value.

The target of test [1] is T1, Aromatase (Homo sapiens, UniProt P11511).
T1 sequence (P11511 whole entry): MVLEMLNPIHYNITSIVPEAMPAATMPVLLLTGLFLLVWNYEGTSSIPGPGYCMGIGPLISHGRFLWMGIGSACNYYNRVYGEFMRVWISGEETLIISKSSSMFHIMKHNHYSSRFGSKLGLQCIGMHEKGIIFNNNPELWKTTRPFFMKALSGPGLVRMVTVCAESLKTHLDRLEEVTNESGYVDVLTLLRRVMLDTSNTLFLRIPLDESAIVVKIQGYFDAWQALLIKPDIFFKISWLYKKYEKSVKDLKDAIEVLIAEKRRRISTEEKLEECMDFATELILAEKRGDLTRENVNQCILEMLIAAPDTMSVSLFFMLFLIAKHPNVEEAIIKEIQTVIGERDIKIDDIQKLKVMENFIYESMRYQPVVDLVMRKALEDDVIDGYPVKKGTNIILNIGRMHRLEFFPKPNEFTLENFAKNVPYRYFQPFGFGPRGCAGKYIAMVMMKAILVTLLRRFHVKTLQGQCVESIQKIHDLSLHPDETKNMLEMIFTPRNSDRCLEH
The test is described as follows: In vitro inhibition of Cytochrome P450 19A1.

The target in test [2] is T1, Aromatase. Briefly: In vitro inactivation of human placental Cytochrome P450 19A1.
Test [3] concerns the target T1, Aromatase. Briefly: Effective dose for inhibition of extragonadal estrogen production in baboons. The class given is functional. Particulars: papio hamadryas; target entry is the homologue from another species.

In the case of `CC12CCC3C(CCC4=C(O)C(=O)CCC43C)C1CCCC2=O` (configuration not stated), on Aromatase [1], the pKi (usually −log10 of the Ki, conventionally taken in molar units) was 7.99. For the same compound, on Aromatase [2], the kinact (usually the rate constant of inactivation at saturating inhibitor) worked out at 0.00041 s⁻¹.
For the compound `C#CC[C@]12CCC(=O)C=C1CC[C@@H]1[C@@H]2CC[C@]2(C)C(=O)CC[C@@H]12` [PLOMESTANE], on Aromatase [3], it took a dose of 4 mg/kg to reach the 50% effect level (ED50). On Aromatase [1], this compound had a pKi of 8.40. The kinact on Aromatase [2] is 0.0011 s⁻¹.
Consider `C[C@]12C=CC(=O)C=C1CC[C@@H]1[C@@H]2CC[C@]2(C)OC(=O)CC[C@@H]12` [TESTOLACTONE], for which the pKi on Aromatase [1] is 4.46. In addition, at Aromatase [2], the kinact stood at 0.00036 s⁻¹.
